How the values were obtained:
[1] = biological target: FGFR4 (Homo sapiens, UniProt P22455); test: FGFR inhibition assay (33P-ATP radiometric kinase assay), FGFR4; type: biochemical; conditions: for IC50: 0.2 mg/mL poly[Glu:Tyr] (4:1) substrate, 10 μM final ATP, 2 hours at room temperature; for inhibition of FGFR4 compared with FGFR1 (selectivity): concentration inhibiting FGFR4 versus concentration inhibiting FGFR1, from Table 2 IC50 values
Description: (§1) The potency of test compounds in inhibiting FGFR1 and FGFR4 was determined. 20 μM of [KKKSPGEYVNIEFG] peptide substrate was added to the reaction buffer (20 mM 4-(2-hydroxyethyl)-1-piperazineethanesulfonic acid (HEPES) (pH 7.5), 10 mM MgCl2, 1 mM egtazic acid (EGTA), 0.02% BRIJ®-35, 0.02 mg/ml bovine serum albumin (BSA), 0.1 mM Na3VO4, 2 mM dithiothreitol (DTT), and 1% DMSO) for FGFR1. 0.2 mg/mL of poly[Glu:Tyr] (4:1) peptide substrate was added to the reaction buffer (20 mM 4-(2-hydroxyethyl)-1-piperazineethanesulfonic acid (HEPES) (pH 7.5), 10 mM MgC12, 1 mM egtazic acid (EGTA), 0.02% BRIJ®-35, 0.02 mg/ml bovine serum albumin (BSA), 0.1 mM Na3VO4, 2 mM dithiothreitol (DTT), and 1% DMSO) for FGFR4. Next, FGFR1 or FGFR4 was added to the substrate solution and gently mixed.
(§2) Test compounds were dissolved in 100% dimethyl sulphoxide (DMSO) and then three-fold serially diluted in DMSO using an epMotion® 5070 robotic pipettor. The diluted test compounds, from 0.00001 M to 5.08053E-10 M, were added to corresponding substrate solutions, and the resulting substrate/compound solutions were incubated for 20 min at room temperature. Radioactive ATP (^33P-ATP) was added to each substrate/compound solution to initiate the kinase activity of FGFR1 or FGFR4 and were incubated for 2 hours at room temperature (10 μM final [ATP]). Reactions were spotted onto P81 ion exchange paper, washed to remove excess radiolabeled ATP and kinase activity determined by quantification of radioactive spots.
(§3) The half maximal inhibitory concentration (IC50) values for FGFR1 and FGFR4 were determined for each compound assayed and are shown in Table 2.

[2] = biological target: FGFR1 (Homo sapiens, UniProt P11362); test: FGFR inhibition assay (33P-ATP radiometric kinase assay), FGFR1; type: biochemical; conditions: 20 μM KKKSPGEYVNIEFG peptide substrate, 10 μM final ATP, 2 hours at room temperature
Description: as §1, §2, §3

FGFR1, sequence (P11362 22-822): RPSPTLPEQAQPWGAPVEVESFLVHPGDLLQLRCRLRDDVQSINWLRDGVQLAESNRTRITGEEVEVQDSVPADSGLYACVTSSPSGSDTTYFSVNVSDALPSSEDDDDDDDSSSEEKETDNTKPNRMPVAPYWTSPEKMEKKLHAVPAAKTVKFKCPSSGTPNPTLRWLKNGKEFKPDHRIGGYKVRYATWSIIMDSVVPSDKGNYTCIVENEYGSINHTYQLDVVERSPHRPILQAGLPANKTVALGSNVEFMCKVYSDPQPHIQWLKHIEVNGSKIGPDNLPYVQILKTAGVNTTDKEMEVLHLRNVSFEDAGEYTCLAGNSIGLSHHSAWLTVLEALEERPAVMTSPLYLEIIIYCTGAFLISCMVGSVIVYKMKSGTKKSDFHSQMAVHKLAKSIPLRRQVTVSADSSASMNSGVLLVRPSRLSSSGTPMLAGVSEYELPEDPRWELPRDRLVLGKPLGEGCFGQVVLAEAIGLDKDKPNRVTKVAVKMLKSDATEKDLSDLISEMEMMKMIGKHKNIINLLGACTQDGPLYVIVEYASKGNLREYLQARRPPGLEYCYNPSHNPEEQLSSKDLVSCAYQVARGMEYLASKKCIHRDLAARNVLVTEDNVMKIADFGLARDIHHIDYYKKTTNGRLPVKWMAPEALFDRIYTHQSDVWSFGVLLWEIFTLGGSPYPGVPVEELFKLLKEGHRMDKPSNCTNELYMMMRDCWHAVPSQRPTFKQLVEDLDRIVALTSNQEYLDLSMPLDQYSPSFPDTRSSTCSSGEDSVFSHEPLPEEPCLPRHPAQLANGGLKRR
FGFR4, sequence (P22455 22-802): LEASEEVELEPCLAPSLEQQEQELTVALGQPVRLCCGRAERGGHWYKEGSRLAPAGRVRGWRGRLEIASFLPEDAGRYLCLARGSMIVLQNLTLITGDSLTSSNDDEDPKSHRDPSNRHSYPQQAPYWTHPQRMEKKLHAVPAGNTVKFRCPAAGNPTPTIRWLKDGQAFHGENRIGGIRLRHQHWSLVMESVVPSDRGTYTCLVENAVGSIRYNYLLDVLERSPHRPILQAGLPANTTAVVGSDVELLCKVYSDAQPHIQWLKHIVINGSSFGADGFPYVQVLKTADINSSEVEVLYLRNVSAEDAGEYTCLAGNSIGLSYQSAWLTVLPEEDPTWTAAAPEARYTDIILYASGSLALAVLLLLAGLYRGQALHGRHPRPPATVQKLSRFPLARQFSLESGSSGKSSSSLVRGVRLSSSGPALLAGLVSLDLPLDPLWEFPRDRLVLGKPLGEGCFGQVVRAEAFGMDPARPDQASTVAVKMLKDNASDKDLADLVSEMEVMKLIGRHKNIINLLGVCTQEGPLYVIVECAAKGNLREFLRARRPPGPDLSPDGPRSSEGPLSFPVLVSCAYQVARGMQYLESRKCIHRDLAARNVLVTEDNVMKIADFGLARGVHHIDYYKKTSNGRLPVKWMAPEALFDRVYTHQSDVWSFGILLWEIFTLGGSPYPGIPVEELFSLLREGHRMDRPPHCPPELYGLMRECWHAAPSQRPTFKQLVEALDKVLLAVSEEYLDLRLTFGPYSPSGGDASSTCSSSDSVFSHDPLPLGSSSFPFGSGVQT

| SMILES | IC50 [1] [µM] | IC50 [2] [µM] | inhibition of FGFR4 compared with FGFR1 (selectivity) [1] |
| --- | --- | --- | --- |
| COc1cc(OC)c(F)c(COc2cnc(NC(=O)N3CCCc4cc(CN5CCN(C)CC5=O)c(C=O)nc43)nc2)c1F [Example 3, N-(5-((2,6-difluoro-3,5-dimethoxybenzyl)oxy)pyrimidin-2-yl)-7-formyl-6-((4-methyl-2-oxopiperazin-1-yl)methyl)-3,4-dihydro-1,8-naphthyridine-1(2H)-carboxamide] | < 0.0005 | 0.14 | – |
| COc1cc(OC)c(F)c(COc2cnc(NC(=O)N3CCCc4ccc(C=O)nc43)nc2)c1F [Example 1, N-(5-((2,6-difluoro-3,5-dimethoxybenzyl)oxy)pyrimidin-2-yl)-7-formyl-3,4-dihydro-1,8-naphthyridine-1(2H)-carboxamide] | 0.0008 | 5.6 | dramatically lower concentration |
| COc1cc(OC)c(F)c(COc2ccc(NC(=O)N3CCCc4ccc(C=O)nc43)nc2)c1F [Example 2, N-(5-((2,6-difluoro-3,5-dimethoxybenzyl)oxy)pyridin-2-yl)-7-formyl-3,4-dihydro-1,8-naphthyridine-1(2H)-carboxamide] | 0.0059 | > 10 | dramatically lower concentration |

Continued, values first:

| IC50 [1] [µM] | IC50 [2] [µM] | inhibition of FGFR4 compared with FGFR1 (selectivity) [1] | SMILES |
| --- | --- | --- | --- |
| 0.0025 | 0.33 | – | COc1cc(OC)c(F)c(C#Cc2cnc(NC(=O)N3CCCc4ccc(C=O)nc43)nc2)c1F [Example 8, N-(5-((2,6-difluoro-3,5-dimethoxyphenyl)ethynyl)pyrimidin-2-yl)-7-formyl-3,4-dihydro-1,8-naphthyridine-1(211)-carboxamide] |
| 0.0019 | 0.13 | – | COc1cc(OC)c(F)c(COc2cnc(NC(=O)N3CCCc4c(C)cc(C=O)nc43)nc2)c1F [Example 5, N-(5-((2,6-difluoro-3,5-dimethoxybenzyl)oxy)pyrimidin-2-yl)-7-formyl-5-methyl-3,4-dihydro-1,8-naphthyridine-1(2H)-carboxamide] |
| 0.001 | 0.063 | – | COc1cc(OC)c(F)c(CCc2cnc(NC(=O)N3CCCc4ccc(C=O)nc43)nc2)c1F [Example 6, N-(5-(2,6-difluoro-3,5-dimethoxyphenethyl)pyrimidin-2-yl)-7-formyl-3,4-dihydro-1,8-naphthyridine-1(2H)-carboxamide] |
| 0.0009 | 1 | – | COc1cc(OC)c(F)c(/C=C/c2cnc(NC(=O)N3CCCc4ccc(C=O)nc43)nc2)c1F [Example 7, (E)-N-(5-(2,6-difluoro-3,5-dimethoxystyryl)pyrimidin-2-yl)-7-formyl-3,4-dihydro-1,8-naphthyridine-1(2H)-carboxamide] |

From patent US20220362245A1, “COMPOUNDS FOR INHIBITING FGFR4” (Terns Pharmaceuticals, Inc., priority 2019, published 2022)
